From patent US12605358B2, “Composition for preventing or treating nervous system diseases comprising compound that inhibits mTOR signaling pathway as active ingredient” (ALIAD BIOPHARMA, priority 2021, dated 2026)

Legend:
5xFAD transgenic mice = assay: Morris water maze test; assay type: in vivo; conditions: 5, 10 and 20 mg/kg groups; similar to the normal group
Method: 5xFAD animals were administered with HN-1703 at three doses for 14 days to male heterozygotes aged 6 months (all born within 3 days). The behaviors of mice were measured in a dark cycle in which the mice were active while alternating light and dark in a 12-hour cycle in a breeding room chamber, and the mice were freely accessible to food and water and bred in compliance with experimental animal ethical guidelines of Kyung Hee University. […] Behavioral measures were measured in Y-maze, Morris Water Maze, and Passive Avoidance test for 18 days in sequence.
A Morris water maze test designed by Richard Morris to test spatial memory was performed on a round and rust-free pool with a white inner-surface (diameter 120 cm; height 60 cm). […] On the first day, the mice were trained in free swimming for 1 minute without a platform foothold, and from the second day, while the mice were trained for 1 minute to find the platform using a spatial clue above the water tank by dissolving dye in water so as not to see the foothold, 6 mice or more were set to a group and put into a quadrant once after taking a sufficient rest, and measured by a video camera. […] The captured video pictures were analyzed with a video tracking system (Ethovision water maze program, Noldus Information Technology, Wageningen, Netherlands). […]

[1] = tested on: primary cultured cerebral neurons; assay: Neuron protective efficacy against Aβ toxicity (DAPI cell count); assay type: cell-based, rat; conditions: Aβ 0.5 or 1 μM, HN-1703 0.1 or 0.5 μM, 12 or 24 hours; Aβ alone reduced viability by 50% or more; FIGS. 5A, 5B
Method: Primary cultured neurons from the cerebral cortex of rat embryos (E16) were treated with […] or 1 μM Aβ and 0.1 μM or 0.5 μM HN-1703 for 12 or 24 hours. Cell viability was evaluated by measuring the number of cells stained with DAPI.
Aβ has strong toxicity to neurons, and the death of neurons caused by Aβ accumulated in the brain is a major cause of Alzheimer's disease. To evaluate whether HN-1703 for inhibiting the mTOR signaling pathway and promoting autophagy may directly protect neurons from Aβ toxicity, an inhibitory effect of HN-1703 on Aβ-induced apoptosis of primary cultured cerebral neurons was evaluated, and the number of live cells stained with DAPI was quantified and shown in FIGS. 5A and 5B.

[2] = tested on: primary cultured hippocampal neurons; assay: LC3-eGFP puncta formation assay (autophagy promotion); assay type: cell-based, rat; conditions: rapamycin and HN-1703 at 0.1 μM and 0.5 μM respectively, 12 hours; FIG. 3A
Method: Primary neurons culture was performed from the hippocampus of rat (SD, Orient Bio) embryonic 16-day (E16) embryos. The left and right hemispheres of the extracted brain were separated using sterile tweezers under a dissecting microscope, the meninges were peeled off, the hippocampus was cut with No. 55 tweezers, and neural progenitor cells were mechanically dissolved in a Ca^2+/Mg^2+-free HBSS (Invitrogen) solution by pipetting with a pasteur pipette (Falcon, 354647). Undissolved tissues or vascular cells were settled, and then a supernatant was taken to measure the cell number and the isolated cells were seeded at 19,000 cells/cm^2 in a 35 mm culture dish coated with poly-L-ornithine (sigma, P3655) and fibronectin (sigma, F4759). The cells were cultured using a serum-free N2 medium (growth medium) added with 10 ng/mL bFGF (Invitrogen) in a 5% CO2 incubator, and the culture medium was replaced after 6 hours and after 24 hours. After 2 days, when the cells proliferated twice or more, subculture was performed.
After 3 days of the primary neural progenitor cell culture, a process of subculturing with 0.05% trypsin was repeated twice, and DNA electroporation or transfection was performed before seeding. […]
The number of cell nuclei labeled with DAPI and the number of cells expressing green fluorescence by overlapping LC3-eGFP expression and DAPI labeling were measured. The number of eGFP-LC3 puncta was measured per cell, and the signal intensity of puncta was measured using a confocal laser microscope program. […]
The autophagy promoting effect of HN-1703 in neurons differentiated by culturing hippocampal neural progenitor cells from rat embryos (E16) was evaluated by performing an LC3-eGFP puncta formation assay. The neural progenitor cells into which an LC3-eGFP recombinant gene was introduced by electroporation were differentiated into neurons, treated with rapamycin and HN-1703 at concentrations of 0.1 μM and 0.5 μM for 12 hours, respectively, and the puncta of LC3-GFP were scanned with a confocal laser microscope (Zeiss, LSM800) to measure the fluorescence intensity of LC3-eGFP and the number of puncta, and the results were illustrated in FIG. 3. Specifically, FIG. 3A illustrates confocal scanning micrographs of LC3-eGFP puncta formation after treated primary cultured hippocampal neurons overexpressing an LC3-eGFP fusion protein with HN-1703, and quantifying the number and fluorescence intensity of LC3-eGFP puncta per cell, and FIG. 3B illustrates a result of LC3-II turnover analysis.

Structure (SMILES): COc1cc(OC)c2c(=O)c3cc4c(cc3oc2c1)OCO4 [HN-1703, 7,9-dimethoxy-10H-[1,3]dioxolo[4,5-b]xanthen-10-one]
- water maze latency time after 4 days of training (5xFAD transgenic mice): about 35 seconds
- cell viability (number of live cells stained with DAPI) under Aβ toxicity [1]: viability was significantly increased
- increase of the number of LC3-eGFP puncta compared to a control group [2]: ≥ 85%
- increase of the signal intensity of LC3-eGFP puncta compared to the control group [2]: ≥ 45%
